# Literature values, collected in patent publication EP0975321B1, “THE USE OF THIOGLYCOLIC ACID AS DEPIGMENTING AGENT” (I.V. Pharma S.A.S., priority 1997, dated 1998).
# Conditions: Acidic strength; Table 1
row,Structure (SMILES),pKa value
1,O=C(O)C(Cl)(Cl)Cl [Trichloroacetic acid],0.70
2,"O=C(O)CS [Tioglycolic acid, 2-mercaptoacetic acid]",3.68
